Data: patent US20230014226A1, “NEW COMPOUNDS AND METHODS” (BenevolentAI Bio Limited, priority 2019, published 2023)
Where two headings read alike, the source gives them in different places. Values belong to the molecule of their own block, whether it stands above or below them.

How the values were obtained:
[1] = tested on: murine Hb9-GFP+ motor neurons in co-culture with ALS patient iAstrocytes; test: Human iAstrocyte - murine Hb9-GFP+ motor neuron co-culture; format: cell-based, human iAstrocytes; conditions: for rescue of motor neuron survival in co-culture with patient-derived iAstrocytes (FIG. 3): 72 hours co-culture, dose dependant, maximum responses close to positive control (1 μM Nilotinib); for efficacy at very high concentrations (motor neuron survival): potentially due to compound toxicity
Source text: iNPCs (induced Neuronal Progenitor Cells) were derived from ALS patient fibroblasts as described previously (Meyer et al. 20148). iNPCs were differentiated into iAstrocytes by culturing in iAsrocyte media for at least 5 days. Murine motor neurons expressing the green fluorescent protein (GFP) under the Hb9 motor neuron-specific promoter (called from now on Hb9-GFP+) were differentiated from murine embryonic stem cells via embryoid bodies (EBs), as previously described (Haidet-Phillips et al. 20119, Wichterle et al. 200210).
iNPCs and mESC were split into iAstrocyte media and mEB media respectively on the same day, such that iAstrocytes and motor neurons will have both differentiated for 7 days when seeded together in co-culture.
Changed media on iAstrocytes, and split using accutase if 90-100% confluent 3 days after seeding from iNPCs. iAstrocytes were left a further 2 days in iAstrocyte media until seeded onto 384-well plates.
Diluted fibronection 1:400 in PBS, and 5 μL added per well. The plate was incubated with fibronectin at room temp for at least 5 mins.
The media was removed from iAstrocytes, and washed in PBS. 1 mL accutase per 10 cm plate was added, and incubated at 37° C. for 4 mins. The plate was tapped to dislodge any remaining iAstrocytes. The iAstrocytes were resuspended in iAstro media, and centrifuged at 200×g for 4 mins. The supernatant was removed, the falcon was flicked to vortex the cells, and resuspended the cells in an appropriate amount of iAstrocyte media. Counted cells using the haemocytometer, and diluted cells to an appropriate dilution for seeding. Seeded 1-2,000 iAstrocytes in 35 μL media on fibronectin-coated 384-well plates. Centrifuged 384-well plates at 1,760×rpm for 60 s using a PK120 (ALC) centrifuged (in neurogenetics) to collect media and cells to base of wells. Plates were left for 24 h for iAstrocytes to adhere to plate.
Drugs were delivered in 100% drug-grade DMSO to iAstrocyte media using an Echo550 liquid handler (Labcyte). 384-well plates were centrifuged at 1,760×rpm for 60 s using a PK120 (ALC) centrifuge.
2 plates of EBs were collected in a 50 mL tube and centrifuged for 4 mins at 200×g. The supernatant was removed from EBs after centrifugation, and washed in 10 mL PBS then centrifuged again for 4 mins at 200×g, and PBS wash removed.
For each 50 mL tube, 2.75 mL EB dissociation buffer was added and then 250 μL 200 U/mL (10×) Papain. The solution was gently pipetted up and down 10 times, using a P1000 pipette, against the side of the falcon (EB pellet was not pipetted directly). 50 mL tube was put in 37° C. water bath and incubated for 5 mins. Tube removed every 3 mins and gently shaken. After 5 mins, additional 2 mL of EB dissociation and 100 μL 200 U/mL (10×) Papain were added, which was then pipette again 5 times with P1000 pipette, and returned to the water bath for another 5 mins. It was returned to water bath as before, and incubated for no longer than 15-20 mins.
Centrifuged for 5 mins at 300×g. Each 50 mL tube, 2.7 mL EB dissociation was prepared, to which 300 μL FBS and 150 μL 0.5 mg/mL DNaseI was added. The supernatant was removed from dissociated EBs and 3 mL of the FBS/DNaseI mix was added, pipetted up and down with P1000 pipette about 5 times. 5 mL FBS was added very slowly to the bottom of the falcon containing the dissociated EBs. The supernatant was removed and the cells very gently resuspended in about 3 mL MN media (more used if the pellet is large) and filtered through a 40 μm filter. 1 mL extra MN media was added to wash the filter.
2,500 murine Hb9-GFP+ motor neurons were seeded per well in 10 μL motor neuron media on top of the pre-treated iAstrocytes. 384-well plates were centrifuged at 1,760×rpm for 60 s using a PK120 (ALC) centrifuge.
Day8 15 μL motor neuron media were added per well. Hb9-GFP+ motor neurons were imaged using an INCELL analyser 2000 (GE Healthcare)—day 1 of co-culture. […]

[2] = tested on: α-synuclein in ReNcell VM Neuronal cells; test: Modulation of α-synuclein aggregation; format: cell-based; conditions: for amount of α-synuclein present in ReNcell VM neuronal cells (FIG. 4): 6 days of compound treatment, antibodies Syn205 and MJF-14; for IC50: ReNcell VM, 100% = reduction equal to 10 μM KU0063794, 0% = 0.1% DMSO
Method: Compounds were assessed for their ability to modulate α-synuclein aggregation. ReNcell VM Neuronal cells were transduced with α-synuclein encoded adenovirus, and compounds were added after 24 hours. After 72 hours, compound was refreshed. After an additional 72 h, cells were fixated (a total of 6 days of compound treatment). Two distinct α-synuclein antibodies were added (Syn205 and MJF-14), imaging was performed on IN Cell 2200 at 10× magnification. Immunoreactivity is quantified by a high content algorithm. Compound data is normalized to a negative control (0.1% DMSO) and a positive control (10 μM KU0063794; CAS 938440-64-3).

[3] = tested on: HUVEC (human umbilical venous endothelial cells); test: HUVEC Tube Formation assay; format: cell-based
Method: HUVEC (human umbilical venous endothelial cells, 1.5×10^4/well, ATCC CRL-1730) are placed in an earlier prepared 96-well plate. Test substance and/or vehicle is then added to each well in a final concentration of 0.4% DMSO in growth medium under an atmosphere of 5% CO2 at 37° C. After an 18 h incubation period, morphology of the endothelial cell tubes, which resemble a capillary-like network, are evaluated by a confocal high-content imaging system. Disruption (anti-angiogenesis) of total tube length is measured from each photograph and determined relative to the vehicle control group. […] Compounds are screened at 30, 3, 0.3, 0.03 and 0.003 μM (or μg/mL) in triplicate.

[4] = tested on: SC-hCMs (stem cell cardiomyocytes); test: Cardiomyocyte assay (CRL), iPSC cardiomyocytes; format: cell-based, human; conditions: for ΔΔ Na Spike Amp at 10 μM, 48 h (%): corrected by time matched controls
Method: All measurements were performed at physiological temperature in a tissue culture incubator (37° C.; 5% CO2). Test article, positive controls and vehicle were added in a sterile tissue culture hood.
At least 10 h before compound addition SC-hCMs were exposed to the fresh culture medium. Before compound addition a one-minute recording of field potentials and impedance signals (baseline) was obtained. Test articles, vehicle and positive controls were added as a 2× concentration. One-minute recordings were obtained 0.5, 1, 2, 24 and 48 h after test article addition.
At the time of drug application, culture medium was added to an independent 96 well plate that was incubated in a tissue culture incubator for 48 h. This culture medium was used as the blank of the cTnI release assay.
After the 48 h exposure recording, 150 μL of each well was centrifuged to remove debris. The supernatant was collected and frozen for later cTnI content analysis using an ELISA plate according the manufacturer's instructions (Abcam, cat #ab200016).
Data was stored on the Charles River Laboratories computer network for off-line analysis. Data acquisition was performed using RTCA Cardio Software.
Data analysis was performed using RTCA Cardio Software, Microsoft Excel and Matlab scripts. Data were reported as mean±SEM.
The following field potential parameters were quantitated: Sodium Spike amplitude, Sodium Spike Rate, field potential duration (FPD), Bazett corrected field potential duration (FPDcB), and dysrhythmic events if present.
The following impedance parameters were quantitated: Cell Index, peak amplitude, relaxation from peak to 50% amplitude (Rel50) and twitch duration.
The sodium spike is the voltage signal produced by the propagation of the depolarizing wave (positive peak) and the local activation of sodium channels (negative peak). The sodium spike amplitude is the voltage difference (in […]) between the positive and negative peaks of the sodium spike. The Sodium Spike Rate is a measure of the rate of sodium spike generation (spikes/min) produced by the spontaneous beating of stem cell cardiomyocytes.
Abnormal rhythm activity was characterized by the presence of the following proarrhythmic markers:
Triggered activity: Triggered activity (TA) is activity characterized by the presence of voltage oscillations during the repolarization period (Early After Depolarizations, EADs) or after the repolarization is completed (Delayed After Depolarizations, DADs). They are produced by different mechanisms. EADs are due to reactivation of sodium and calcium currents due to prolongation of the action potential. DADs are due to transient releases of calcium from intracellular calcium stores. Both EADs and DADs can trigger action potentials (ectopic beats, EB).
Impedance instability: Impedance instability (II) consist of small oscillations of the impedance signal during the slower relaxation phase of the impedance twitch sometimes associated with small oscillations of the field potential (FPO). […] II informs about the possibility of drug-induced delayed repolarization setting the background where more robust proarrhythmic markers like EADs and DADs occur.
The SEM of the difference was calculated according to the following equation ΔΔSEM=(SEMtreatment2+SEMcontrol2)0.5.
The statistical analysis includes 1) a Student paired t-test to evaluate the changes respect to baseline and, 2) a multi-comparison analysis (Dunnett's test) of A % changes respect to time matched controls. An alpha probability of 0.05 was considered significant.

[5] = tested on: HUVEC; test: HUVEC Cell Viability (CV) assay; format: cell-based, human; conditions: Homo sapiens, alamarBlue
Method: Cells are seeded at 10,000 cells/well in 96-well plates in HUVEC specific cell culture media. Cells are plated and cultured overnight (16-24 h) at 37° C. After the overnight culture, cells are washed and fed with the Assay Medium. Test compounds are applied and incubated with the cells for the designated time period, after which the cell viability is measured by alamarBlue method. […] The final DMSO concentration is 1%.
Fluorescence readings are recorded after the test compound and alamarBlue incubation. The excitation and emission wavelengths are 530 nm and 590 nm, respectively.
The percent of control is calculated by comparing the readings in the presence of the test compound to the vehicle control. Subsequently, the percent inhibition is calculated by subtracting the percent control activity from 100. IC50 values (concentration causing a half-maximal inhibition of the control value) are determined by non-linear regression analysis of the concentration-response curves using the Hill equation.
The reference compound used for this assay is Staurosporine.

SMILES: Cc1ccc(C(=O)Nc2cc3n(n2)CCC3(C)C)cc1C#Cc1cccnc1 [Example 26, N-(4,4-dimethyl-5,6-dihydropyrrolo[1,2-b]pyrazol-2-yl)-4-methyl-3-[2-(3-pyridyl)ethynyl]benzamide]
- rescue of motor neuron survival in co-culture with patient-derived iAstrocytes (FIG. 3) [1]: rescue motor neuron survival
- amount of α-synuclein present in ReNcell VM neuronal cells (FIG. 4) [2]: dose dependant reduction
- IC50 [2]: 1000 to 10000 nM

SMILES: Cc1ccc(C(=O)Nc2cnn(C(C)C3CC3)c2)cc1C#Cc1cccnc1 (centres unmarked) [Example 17, N-[1-(1-cyclopropylethyl)-1H-pyrazol-4-yl]-4-methyl-3-[2-(pyridin-3-yl)ethynyl]benzamide]
- rescue of motor neuron survival in co-culture with patient-derived iAstrocytes (FIG. 3) [1]: rescue motor neuron survival
- efficacy at very high concentrations (motor neuron survival) [1]: reduction in efficacy at very high concentrations

SMILES: Cc1ccc(C(=O)Nc2cnn(C(C)(C)C)c2)cc1C#Cc1cccnc1 [Example 10, N-(1-tert-butyl-1H-pyrazol-4-yl)-4-methyl-3-[2-(pyridin-3-yl)ethynyl]benzamide]
- rescue of motor neuron survival in co-culture with patient-derived iAstrocytes (FIG. 3) [1]: rescue motor neuron survival

SMILES: Cc1ccc(C(=O)Nc2ccc(CN3CCN(C)CC3)c(C(F)(F)F)c2)cc1C#Cc1cnc2cccnn12 [Comparative Example 2, 3-(imidazo[1,2-b]pyridazin-3-ylethynyl)-4-methyl-N-[4-[(4-methyl-1-piperazinyl)methyl]-3-(trifluoromethyl)phenyl]benzamide, reference compound]
- GI50 ([3]; 18 h, read-out: Tube formation GI50 (μM)): 1.2 µM
- Proarrhythmic Markers at 10 μM, 48 h ([4]; 10 μM, 48 h): Q and RV
- ΔΔ Na Spike Amp at 10 μM, 48 h (%) ([4]; 10 μM, 48 h): (cells quiescent)
- IC50 [5]: 320 nM

Second part, led by results:

- ΔΔ Na Spike Amp at 10 μM, 48 h (%) ([4]; 10 μM, 48 h): −96.2%
SMILES: Cc1cn(-c2cc(NC(=O)c3ccc(C)c(Nc4nccc(-c5cccnc5)n4)c3)cc(C(F)(F)F)c2)cn1 [Comparative Example 3, 4-methyl-N-[3-(4-methylimidazol-1-yl)-5-(trifluoromethyl)phenyl]-3-[(4-pyridin-3-ylpyrimidin-2-yl)amino]benzamide, reference compound]
- GI50 ([3]; 18 h incubation, read-out: Tube formation GI50): > 10 µM
- Proarrhythmic Markers at 10 μM, 48 h ([4]; 10 μM, 48 h): II and TA
- IC50 [5]: 3600 nM

- effect on sodium spike amplitude vs. control (given as reduction for nilotinib and Example 39) ([4]; 10 μM after 48 hours): 96.2%
SMILES: Cc1cn(-c2cc(NC(=O)c3ccc(C)c(Nc4nccc(-c5cccnc5)n4)c3)cc(C(F)(F)F)c2)cn1 [nilotinib, Nilotinib]
- proarrhythmic markers observed ([4]; 10 μM, 48 h): triggered activity and impedance instability

- IC50 [2]: 1000 to 10000 nM
SMILES: Cc1ccc(C(=O)Nc2cnn(C(C)C)c2)cc1C#Cc1cccnc1 [Example 24, N-(1-isopropylpyrazol-4-yl)-4-methyl-3-[2-(3-pyridyl)ethynyl]benzamide]
- rescue of motor neuron survival in co-culture with patient-derived iAstrocytes (FIG. 3) [1]: rescue motor neuron survival
- efficacy at very high concentrations (motor neuron survival) [1]: reduction in efficacy at very high concentrations
- amount of α-synuclein present in ReNcell VM neuronal cells (FIG. 4) [2]: dose dependant reduction
